Measurements published in patent US20100063026A1, “ANTIBACTERIAL QUINOLINE DERIVATIVES” (priority 2007, published 2010).
Converted amounts (≈) assume the structure as drawn.

Key:
M. smegmatis ATCC607 = assay: In-vitro anti-bacterial activity against strain M. smegmatis ATCC607; details: for IC90 MSM 1 ATCC607: 90% inhibitory concentration for bacterial growth, 48 hours, 37° C., Alamar Blue fluorescence; for IC90: Mycolicibacterium smegmatis, ATCC607, 48 h, read-out: IC90 MSM 1 ATCC607, 90% inhibitory concentration for bacterial growth, 37° C., Alamar Blue fluorescence
Protocol: Flat-bottom, sterile 96-well plastic microtiter plates were filled with 180 μl of sterile deionized water, supplemented with 0.25% BSA. Subsequently, stock solutions (7.8× final test concentration) of compounds were added in 45 μl volumes to a series of duplicate wells in column 2 so as to allow evaluation of their effects on bacterial growth. Serial five-fold dilutions (45 μl in 180 μl) were made directly in the microtiter plates from column 2 to 11 using a customised robot system (Zymark Corp., Hopkinton, Mass.). Pipette tips were changed after every 3 dilutions to minimize pipetting errors with high hydrophobic compounds. Untreated control samples with (column 1) and without (column 12) inoculum were included in each microtiter plate. Approximately 250 CFU per well of bacteria inoculum, in a volume of 100 μl in 2.8× Mueller-Hinton broth medium, was added to the rows A to H, except column 12. The same volume of broth medium without inoculum was added to column 12 in row A to H. The cultures were incubated at 37° C. for 48 hours in a humidified 5% CO2 atmosphere (incubator with open air valve and continuous ventilation). At the end of incubation, two days after inoculation, the bacterial growth was quantitated fluorometrically. Therefore Alamar Blue (10×) was added to all wells in a volume of 20 μl and plates were incubated for another 2 hours at 50° C.
The fluorescence was read in a computer-controlled fluorometer (Cytofluor, Biosearch) at an excitation wavelength of 530 nm and an emission wavelength of 590 nm (gain 30). The percentage growth inhibition achieved by the compounds was calculated according to standard methods and expressed as IC90 (μg/ml) which defines the 90% inhibitory concentration for bacterial growth.

[1] = system: Streptococcus pneumoniae (ATCC6305); assay: Microtitre plate IC90 determination against non-mycobacterial strains: S. pneumoniae; format: cell-based; details: 90% inhibitory concentration for bacterial growth, 37° C., resazurin fluorescence; for IC90 SPN 1 6305: 24 hours; for IC90: Streptococcus pneumoniae, ATCC6305, 24 h, read-out: IC90 SPN 1 6305
Protocol: (§1) The bacteria used in this study were grown overnight in flasks containing 100 ml Mueller-Hinton Broth (Becton Dickinson-cat. no. 275730) in sterile de-ionized water, with shaking, at 37° C. Stocks (0.5 ml/tube) were stored at -70° C. until use. Bacteria titrations were performed in microtiter plates to detect the TCID50, in which the TCID50 represents the dilution that gives rise to bacterial growth in 50% of inoculated cultures. In general, an inoculum level of approximately 100 TCID50 was used for susceptibility testing. […] Therefore resazurin (0.6 mg/ml) was added in a volume of 20 μl to all wells 3 hours after inoculation, and the plates were re-incubated overnight. A change in colour from blue to pink indicated the growth of bacteria.

[2] = system: Staphylococcus aureus (ATCC29213); assay: Microtitre plate IC90 determination against non-mycobacterial strains: S. aureus; format: cell-based; details: 90% inhibitory concentration for bacterial growth, 37° C., resazurin fluorescence; for IC90 STA 1 B29213: 24 hours; for IC90: Staphylococcus aureus, ATCC29213, 24 h, read-out: IC90 STA 1 B29213
Protocol: as §1

Row | SMILES | IC90 MSM 1 ATCC607 (M. smegmatis ATCC607) | IC90 SPN 1 6305 [1] | IC90 STA 1 B29213 [2] | IC90 [1] | IC90 (M. smegmatis ATCC607) | IC90 [2]
1 | COc1nc2ccc(Br)cc2cc1C(c1ccccc1)C(O)(CCCCN(C)CCc1ccccn1)c1ccccc1 (stereo not drawn) [Compound 8] | 2.0 µg/mL (≈ 3.2 µM) | 2.2 µg/mL (≈ 3.52 µM) | 2.0 µg/mL (≈ 3.2 µM) |  |  | 
2 | COc1nc2ccc(Br)cc2cc1C(c1ccccc1)C(O)(CCCCNC1CC2CCC1C2)c1ccc2ccccc2c1 (stereo not drawn) [Compound 40] | 0.4 µg/mL (≈ 0.616 µM) | 0.5 µg/mL (≈ 0.77 µM) | 1.6 µg/mL (≈ 2.46 µM) |  |  | 
3 | COc1nc2ccc(Br)cc2cc1C(c1ccccc1)C(O)(CCCCN1CC2CC1CN2Cc1ccccc1)c1ccc2ccccc2c1 (single isomer, unassigned) [Compound 20] | 2.3 µg/mL (≈ 3.16 µM) |  | 11.5 µg/mL (≈ 15.8 µM) | 0.6 µg/mL (≈ 0.826 µM) |  | 
4 | COc1nc2ccc(Br)cc2cc1C(c1ccccc1)C(O)(CCCCN1CC2CC1CN2C)c1ccc2ccccc2c1 (single isomer, unassigned) [Compound 56] |  |  |  |  | 2.1 µg/mL (≈ 3.23 µM) | 2.3 µg/mL (≈ 3.53 µM)
5 | COc1nc2ccc(Br)cc2cc1C(c1ccccc1)C(O)(CCCCN1CCN(C2CCN(Cc3ccccc3)C2)CC1)c1ccc2ccccc2c1 (single isomer, unassigned) [Compound 31] | 4.4 µg/mL (≈ 5.61 µM) | 15.6 µg/mL (≈ 19.9 µM) | 12.4 µg/mL (≈ 15.8 µM) |  |  | 
6 | COc1nc2ccc(Br)cc2cc1C(c1ccc(Cl)cc1)C(O)(CCCCN1CC2CC1CN2Cc1ccccc1)c1ccc2ccccc2c1 (single isomer, unassigned) [Compound 37] | 2.1 µg/mL (≈ 2.76 µM) | 0.5 µg/mL (≈ 0.657 µM) | 2.7 µg/mL (≈ 3.55 µM) |  |  | 
7 | COc1nc2ccc(Br)cc2cc1C(c1ccccc1)C(O)(CCCCN1CCC(N2CCCCC2)CC1)CCc1ccccc1 (single isomer, unassigned) [Compound 10] | 2.4 µg/mL (≈ 3.5 µM) | 2.2 µg/mL (≈ 3.21 µM) | 2.2 µg/mL (≈ 3.21 µM) |  |  | 
8 | COc1ccc(N2CCN(CCCCC(O)(c3ccc4ccccc4c3)C(c3ccccc3)c3cc4cc(Br)ccc4nc3OC)CC2)cc1 (single isomer, unassigned) [Compound 27] |  |  | 18.4 µg/mL (≈ 25.2 µM) |  |  | 
9 | COc1nc2ccc(Br)cc2cc1C(c1ccccc1)C(O)(CCCCN1CC2CC1CN2CC(C)C)c1ccc2ccccc2c1 (stereo not drawn) [Compound 52] |  |  |  | 0.5 µg/mL (≈ 0.722 µM) | 2.2 µg/mL (≈ 3.18 µM) | 2.2 µg/mL (≈ 3.18 µM)
10 | COc1nc2ccc(Br)cc2cc1C(c1ccccc1)C(O)(CCCCN1CC2CC1CN2C1CCN(C)CC1)c1ccc2ccccc2c1 (single isomer, unassigned) [Compound 63] |  |  |  |  | 2.3 µg/mL (≈ 3.13 µM) | 2.3 µg/mL (≈ 3.13 µM)
11 | COc1nc2ccc(Br)cc2cc1C(c1ccccc1)C(O)(CCCCNCCN(C)C)c1ccccc1 (single isomer, unassigned) [Compound 66] |  |  | 1.8 µg/mL (≈ 3.12 µM) |  |  | 
12 | COc1nc2ccc(Br)cc2cc1C(c1ccccc1)C(O)(CCCCNCCN(C)C)c1ccccc1 (single isomer, unassigned) [Compound 65] |  |  |  |  | 1.8 µg/mL (≈ 3.12 µM) | 1.8 µg/mL (≈ 3.12 µM)
13 | COc1nc2ccccc2cc1C(c1ccccc1)C(O)(CCCCN1CC2CC1CN2)c1ccc2ccccc2c1 (single isomer, unassigned) [Compound 18] |  |  |  | 1.8 µg/mL (≈ 3.23 µM) | 1.8 µg/mL (≈ 3.23 µM) | 1.8 µg/mL (≈ 3.23 µM)
14 | COc1nc2ccc(Br)cc2cc1C(c1ccccc1)C(O)(CCCCN1CCCNCC1)c1ccccc1 (single isomer, unassigned) [Compound 47] |  |  |  | 0.9 µg/mL (≈ 1.53 µM) | 1.9 µg/mL (≈ 3.23 µM) | 1.9 µg/mL (≈ 3.23 µM)
15 | COc1nc2ccc(Br)cc2cc1C(c1ccccc1)C(O)(CCCCN1CCCN(C)CC1)c1ccc2ccccc2c1 (stereo not drawn) [Compound 35c] | 1.5 µg/mL (≈ 2.3 µM) | 0.4 µg/mL (≈ 0.613 µM) | 2.1 µg/mL (≈ 3.22 µM) |  |  | 
16 | COc1nc2ccc(Br)cc2cc1C(c1ccccc1)C(O)(CCCCN1CC2CC1CN2CCN(C)C)c1ccc2ccccc2c1 (single isomer, unassigned) [Compound 62] |  |  | 2.2 µg/mL (≈ 3.11 µM) |  |  | 
17 | COc1nc2ccc(Br)cc2cc1C(c1ccccc1)C(O)(CCCCN(C)CCc1ccccn1)c1ccccc1 (stereo not drawn) [Compound 6] |  |  |  | 2.2 µg/mL (≈ 3.52 µM) | 2 µg/mL (≈ 3.2 µM) | 2 µg/mL (≈ 3.2 µM)

Row | SMILES | IC90 MSM 1 ATCC607 (M. smegmatis ATCC607) | IC90 SPN 1 6305 [1] | IC90 STA 1 B29213 [2] | IC90 [1] | IC90 (M. smegmatis ATCC607) | IC90 [2]
18 | COc1nc2ccc(Br)cc2cc1C(c1ccccc1)C(O)(CCCCN1CCN(C2CCN(Cc3ccccc3)C2)CC1)c1ccc2ccccc2c1 (single isomer, unassigned) [Compound 32] | 5.6 µg/mL (≈ 7.14 µM) | 2.5 µg/mL (≈ 3.19 µM) | 2.5 µg/mL (≈ 3.19 µM) |  |  | 
19 | COc1nc2ccc(Br)cc2cc1C(c1ccccc1)C(O)(CCCCN1CC2CC1CN2C)c1ccc2ccccc2c1 (single isomer, unassigned) [Compound 57] | 2.1 µg/mL (≈ 3.23 µM) |  | 2.3 µg/mL (≈ 3.53 µM) |  |  | 
20 | COc1nc2ccc(Br)cc2cc1C(c1ccccc1)C(O)(CCCCN(C)C1CCN(C)CC1)c1ccccc1 (single isomer, unassigned) [Compound 4] |  |  |  | 2 µg/mL (≈ 3.24 µM) | 2 µg/mL (≈ 3.24 µM) | 9.8 µg/mL (≈ 15.9 µM)
21 | COc1nc2ccc(Br)cc2cc1C(c1ccccc1)C(O)(CCCCN1CCN(C2CCN(Cc3ccccc3)C2)CC1)c1ccc2ccccc2c1 (single isomer, unassigned) [Compound 30] | 2.5 µg/mL (≈ 3.19 µM) | 2.5 µg/mL (≈ 3.19 µM) | 2.5 µg/mL (≈ 3.19 µM) |  |  | 
22 | COc1nc2ccc(Br)cc2cc1C(c1ccccc1)C(O)(CCCCN(C)C1CCN(C)CC1)c1ccccc1 (single isomer, unassigned) [Compound 5] | 2.0 µg/mL (≈ 3.24 µM) | 2.0 µg/mL (≈ 3.24 µM) | 7.8 µg/mL (≈ 12.6 µM) |  |  | 
23 | COc1nc2ccc(Br)cc2cc1C(c1ccccc1)C(O)(CCCCN(C)CCN(C)C)c1ccccc1 (single isomer, unassigned) [Compound 51] |  |  |  | 9.4 µg/mL (≈ 15.9 µM) | 9.4 µg/mL (≈ 15.9 µM) | 9.4 µg/mL (≈ 15.9 µM)
24 | COc1nc2ccc(Br)cc2cc1C(c1ccccc1)C(O)(CCCCN1CCN(C(C)=O)CC1)c1ccccc1 (single isomer, unassigned) [Compound 3] |  |  |  | 9.8 µg/mL (≈ 15.9 µM) | 4.9 µg/mL (≈ 7.95 µM) | 61.7 µg/mL (≈ 100 µM)
25 | COc1nc2ccc(Br)cc2cc1C(c1ccccc1)C(O)(CCCCN1CC2CC1CN2Cc1ccccc1)CCCc1ccccc1 (single isomer, unassigned) [Compound 15] | 4.0 µg/mL (≈ 5.56 µM) | 2.6 µg/mL (≈ 3.62 µM) | 11.4 µg/mL (≈ 15.9 µM) |  |  | 
26 | COc1nc2ccc(Br)cc2cc1C(c1ccccc1)C(O)(CCCCN1CC2CC1CN2C1CCN(C)CC1)c1ccc2ccccc2c1 (single isomer, unassigned) [Compound 64] | 1.3 µg/mL (≈ 1.77 µM) |  | 2.3 µg/mL (≈ 3.13 µM) |  |  | 
27 | COc1nc2ccc(Br)cc2cc1C(c1ccccc1)C(O)(CCCCN1CC2CC1CN2Cc1ccccc1)CCc1ccccc1 (single isomer, unassigned) [Compound 13] | 5.6 µg/mL (≈ 7.95 µM) | 2.5 µg/mL (≈ 3.55 µM) | 2.2 µg/mL (≈ 3.12 µM) |  |  | 
28 | COc1nc2ccc(Br)cc2cc1C(c1ccccc1)C(O)(CCCCN1CC2CC1CN2Cc1ccccc1)c1ccc2ccccc2c1 (stereo not drawn) [Compound 22] |  | 2.9 µg/mL (≈ 3.99 µM) | 9.2 µg/mL (≈ 12.7 µM) |  | 0.6 µg/mL (≈ 0.826 µM) | 
29 | COc1nc2ccc(Br)cc2cc1C(c1ccccc1)C(O)(CCCCN1CCCN(C)CC1)c1ccc2ccccc2c1 (stereo not drawn) [Compound 34d] | 2.1 µg/mL (≈ 3.22 µM) | 0.4 µg/mL (≈ 0.613 µM) | 2.1 µg/mL (≈ 3.22 µM) |  |  | 
30 | COc1nc2ccc(Br)cc2cc1C(c1ccccc1)C(O)(CCCCN1CCCN(C)CC1)c1ccc2ccccc2c1 (single isomer, unassigned) [Compound 34] |  |  |  |  | 2.1 µg/mL (≈ 3.22 µM) | 2.1 µg/mL (≈ 3.22 µM)
31 | CN1CCCN(CCCCC(O)(c2ccc3ccccc3c2)C(c2ccccc2)c2cc3cc(Br)ccc3[nH]c2=O)CC1 (single isomer, unassigned) [Compound 45] |  |  | 2.3 µg/mL (≈ 3.6 µM) |  | 2 µg/mL (≈ 3.13 µM) | 
32 | COc1nc2ccc(Br)cc2cc1C(c1ccccc1)C(O)(CCCCNC1CC2CCC1C2)c1ccccc1 (stereo not drawn) [Compound 60] |  |  |  |  | 1.9 µg/mL (≈ 3.17 µM) | 1.9 µg/mL (≈ 3.17 µM)
33 | COc1nc2ccc(Br)cc2cc1C(c1ccccc1)C(O)(CCCCN1CC2CC1CN2CCN(C)C)c1ccc2ccccc2c1 (single isomer, unassigned) [Compound 61] |  |  |  |  | 2.2 µg/mL (≈ 3.11 µM) | 2.2 µg/mL (≈ 3.11 µM)
